{"source": "patent US20110281802A1", "about": "“COMPOSITION FOR TREATMENT AND PREVENTION OF HAIR LOSS AND PREMATURE GRAYING OF HAIR” (Immudiagnostik AG, priority 2007, published 2011)", "assay_type_in_all_cases": "cell-based", "key": {"thymulin": {"test_system": "thymulin", "test": "Thymulin staining of GH-treated hair follicles"}, "[1]": {"test_system": "human anagen VI hair follicles", "test": "Hair shaft elongation of organ-cultured hair follicles, assay #1 (culture HF 429)", "procedure": "(§1) Human anagen VI hair follicles were isolated from scalp skin obtained from three different individuals undergoing routine face-lift surgery. All experiments were performed according to Helsinki guidelines.\n(§2) Hair follicles were isolated as described (Philpott MP et al, Human hair growth in vitro; J Cell Science 1990, 97(Pt 3):463-71). Isolated HFs were maintained in supplemented, serum-free Williams E medium (Biochrom, Cambridge, UK) supplemented with 2 mMol/L L-glutamine (Invitrogen, Paisley, UK), 10 ng/mL hydrocortisone (Sigma-Aldrich, Taufkirchen, Germany), 10 μg/mL insulin (Sigma-Aldrich), and 1% antibiotic/antimycotic mixture (Gibco, Karlsruhe, Germany). Hair follicles were placed in a 24-well plate with 500 μL medium (day 0) and incubated in a CO2-incubator (5% CO2, 37° C.) over night without any treatment. The next day (day 1) medium was exchanged and test substance was added to each well (5 μL of stock solution was added to 495 μL culture medium). The medium or medium with test substance was changed every 48 hours.\n(§3) Assay #1 Culture HF429: Hair follicles were grown in the wells of a microtiter plate (3 follicles per well) and treated for 9 days with culture medium and test substance as indicated in FIG. 1. Thereafter, elongation, melanogenesis and hair cycle stage were determined.\n(§4) Hair shaft length measurements were performed every second day on individual hair follicles using a binocular microscope with an eyepiece measuring reticule. The length of the follicle was defined as the distance between the base of the bulb and the cut end of the hair fibre (Philpott MP et al, Human hair growth in vitro; J Cell Science 1990, 97(Pt 3):463-71).\n(§5) All data were analysed by two-tailed unpaired t-test (SPSS analysis software SPSS Inc., Chicago, USA). For determination of elongation, two outliers at top and bottom end of value range were eliminated; with the measurement of melanogenesis one outlier at both, top and bottom range, was eliminated. Results are given as mean value and standard error of measurement (SEM)."}, "[2]": {"test_system": "human anagen VI hair follicles", "test": "Hair shaft elongation of organ-cultured hair follicles, assay #3 (culture HF 446)", "conditions": "for Rate of hair growth compared with control (in words): p<0.05", "procedure": "as §1, §2\n(§6) Assay #3 Culture HF 446: Eight hair follicle cultures (3 follicles/well) were treated with various concentration of test substance as described for 2 days, followed by snap freezing and sectioning of two wells. Six wells were treated up to 9 days, then snap frozen and sectioned. The distribution of test substances and concentrations were as indicted in FIG. 3. The parameter measured after two days was proliferation/apoptosis, and the parameters measured after 9 days were elongation, proportion of cells in proliferation/apoptosis, and hair cycle stage\nas §4, §5"}, "[3]": {"test_system": "human anagen VI hair follicles", "test": "Melanogenesis, Fontana Masson staining measured by Image J, assay #1", "conditions": "for Mean relative darkening of the groups (measured by image J), Mean: 9 days, dark=small index number, light=high index number", "procedure": "as §3\nFontana Masson staining was performed at the end of the culture period and photos taken of snap frozen sections. The photos were analysed (Image J, public domain, developed at the National Institutes of Health, USA) by measuring the density of two squares, consisting of 150×150 dots, placed over the darkest areas on both sides of the dermal papilla. For Fontana-Masson staining, fixed sections were treated in darkness for 40 minutes with a solution containing 10% silver nitrate (Merck & Co., Inc., Whitehouse Station, N.J., USA; CatNo 1.01512.0100), following by a development in solution containing 5% sodium thiosulphate (Merck & Co., Inc.; CatNo 1.06512.2500) for 1 minute and multiple washings in distilled water for 3 minutes. Counterstaining with 0.5% Neutralrot (Chroma Muenster, Germany, CatNo 2E038). Then dehydration in xylol and covering with Eukitt (O. Kindler GmbH, Freiburg, Germany; CatNo E115).\nas §5\nMicro-dissected anagen VI hair follicles were treated as above described. At the end of the culture period Fontana Masson staining was performed and photos were taken of the snap frozen sections. The pictures were analysed by measuring the darkness (brightness) of two squares, consisting of 150×150 dots, placed over the darkest areas on both sides of the dermal papilla (dark=small index number, light=high index number). The shading of the different groups was compared to each other and the results were analysed using Student's t-test. The results are shown below in Table 5 and FIG. 7."}, "[4]": {"test_system": "human anagen hair follicles", "test": "Ki67/TUNEL staining, percentage of proliferating cells, assay #3", "conditions": "for Mean percentage of Ki67-positive cells: after 9 days of culture, Anagen only; for Percentage of proliferating cells compared to the control (in words): nine days, p<0.05", "procedure": "as §6\nAfter nine days, Ki67/TUNEL staining was performed and photos taken.\nProliferating and resting cells as well as cells undergoing apoptosis were counted separately proximal Auber's line. Results are expressed as percentages. For Ki-67/TUNEL staining, fixed sections were incubated for 60 minutes in a solution comprising 30% TdT-enzyme (Chemicon International, Inc., Temecula, Calif., USA; CatNo S1707). 2 mL stop buffer (Chemicon International, Inc.; CatNo S7110), diluted in 68 mL distilled water, was added for 10 minutes to stop the reaction. This was followed by a pre-incubation for 20 minutes with 10% goat serum (Dako Cytomation, CatNo 50114121) and incubation with mouse-anti human Ki-67 antigen (Chemicon International, Inc., CatNo S7110) 1:20 in PBS with 2% goat serum. The fixed section was then washed in PBS, treated with anti-digoxigenin antibody (Chemicon International, Inc., CatNo S7110) (59DI Antibody solution and 5601 Stop solution, 30 minutes) and goat anti-mouse-IgG-rhodamine red (Jackson Immuno Research, Suffolk, UK; CatNo 115-295-062), 1:200 in PBS with 2% goat serum. After washes with PBS, counterstaining with DAPI™ ([…]) (Roche, Basel, Switzerland; CatNo 236276) and further washes with PBS and mounting using Fluoromount (Southern Biotech, Birmingham, Ala., USA; CatNo 0100-01).\nAfter nine days, Ki67/TUNEL staining was performed and photos were taken. In anagen hair follicles, proliferating cells and cells undergoing apoptosis were counted separately proximal Auber's line. Results are expressed as percentages. […] The results are summarized in Table 6 and FIG. 9 showing the mean percentage of Ki6 7 positive cells with SEM"}, "human hair follicles": {"test_system": "human hair follicles", "test": "Hair cycle staging of cultured hair follicles (assays #1, #2, #3)", "conditions": "after 9 days of treatment, both tested individuals, all concentrations", "procedure": "(§7) Photodocuments from the Fontana Masson staining were used for hair follicle staging according to previously well-defined morphological criteria (Stenn K S et al, Controls of Hair Follicle Cycling; Physiol Rev 2001, 81:449-494, Müller-Röver S et al, A Comprehensive Guide for the Accurate Classification of Murine Hair Follicles in Distinct Hair Cycle Stages; J Invest Dermatol 2001, 117:3-15). The percentage of hair follicles in anagen, early, mid and late catagen was determined.\nas §7, with “determined in the different assays.” for “determined.”"}}, "note": "Where no end group is shown, it is not given here.", "data": [{"substance": "GH: GH, pituitary hormone that stimulates the secretion of thymulin", "values": [{"measurement": "Staining for thymulin compared with the control group (in words)", "setting": "thymulin", "value": "stained more intensively for thymulin"}]}, {"substance": "Thymosin alpha-1 (SDAAVDTSSEITTKDLKEKKEVVEEAEN; ends and bridges not checked; UniProt P06454 2-29, looked up) [TA1, 28aa thymic peptide which modulates lymphocyte differentiation]", "values": [{"measurement": "Mean elongation in percent compared to day 0", "setting": "[1]; 100 ng/mL, Day 0", "value": 0.00, "unit": "%"}, {"measurement": "Mean elongation in percent compared to day 0", "setting": "[1]; 100 ng/mL, Day 1", "value": 16.71, "unit": "%"}, {"measurement": "Mean elongation in percent compared to day 0", "setting": "[1]; 100 ng/mL, Day 3", "value": 34.54, "unit": "%"}, {"measurement": "Mean elongation in percent compared to day 0", "setting": "[1]; 100 ng/mL, Day 5", "value": 51.14, "unit": "%"}, {"measurement": "Mean elongation in percent compared to day 0", "setting": "[1]; 100 ng/mL, Day 7", "value": 70.11, "unit": "%"}, {"measurement": "Mean elongation in percent compared to day 0", "setting": "[1]; 100 ng/mL, Day 9", "value": 82.55, "unit": "%"}, {"measurement": "Mean elongation in percent compared to day 0", "setting": "[1]; 1000 ng/mL, Day 0", "value": 0.00, "unit": "%"}, {"measurement": "Mean elongation in percent compared to day 0", "setting": "[1]; 1000 ng/mL, Day 1", "value": 15.41, "unit": "%"}, {"measurement": "Mean elongation in percent compared to day 0", "setting": "[1]; 1000 ng/mL, Day 3", "value": 34.74, "unit": "%"}, {"measurement": "Mean elongation in percent compared to day 0", "setting": "[1]; 1000 ng/mL, Day 5", "value": 50.66, "unit": "%"}, {"measurement": "Mean elongation in percent compared to day 0", "setting": "[1]; 1000 ng/mL, Day 7", "value": 66.20, "unit": "%"}, {"measurement": "Mean elongation in percent compared to day 0", "setting": "[1]; 1000 ng/mL, Day 9", "value": 75.26, "unit": "%"}, {"measurement": "Mean elongation in % compared to day 0", "setting": "[2]; 100 ng/mL, Day 0", "value": 0, "unit": "%"}, {"measurement": "Mean elongation in % compared to day 0", "setting": "[2]; 100 ng/mL, Day 1", "value": 6.25, "unit": "%"}, {"measurement": "Mean elongation in % compared to day 0", "setting": "[2]; 100 ng/mL, Day 3", "value": 45.55, "unit": "%"}, {"measurement": "Mean elongation in % compared to day 0", "setting": "[2]; 100 ng/mL, Day 5", "value": 49.52, "unit": "%"}, {"measurement": "Mean elongation in % compared to day 0", "setting": "[2]; 100 ng/mL, Day 7", "value": 61.94, "unit": "%"}, {"measurement": "Mean elongation in % compared to day 0", "setting": "[2]; 100 ng/mL, Day 9", "value": 69.90, "unit": "%"}, {"measurement": "Rate of hair growth compared with control (in words)", "setting": "[2]; 100 ng/mL", "value": "significantly lowered rate of hair growth"}, {"measurement": "Mean elongation in % compared to day 0", "setting": "[2]; 1000 ng/mL, Day 0", "value": 0, "unit": "%"}, {"measurement": "Mean elongation in % compared to day 0", "setting": "[2]; 1000 ng/mL, Day 1", "value": 4.00, "unit": "%"}, {"measurement": "Mean elongation in % compared to day 0", "setting": "[2]; 1000 ng/mL, Day 3", "value": 37.95, "unit": "%"}, {"measurement": "Mean elongation in % compared to day 0", "setting": "[2]; 1000 ng/mL, Day 5", "value": 51.77, "unit": "%"}, {"measurement": "Mean elongation in % compared to day 0", "setting": "[2]; 1000 ng/mL, Day 7", "value": 68.36, "unit": "%"}, {"measurement": "Mean elongation in % compared to day 0", "setting": "[2]; 1000 ng/mL, Day 9", "value": 73.33, "unit": "%"}, {"measurement": "Rate of hair growth compared with control (in words)", "setting": "[2]; 1000 ng/mL", "value": "significantly lowered rate of hair growth"}, {"measurement": "Mean relative darkening of the groups (measured by image J), Mean", "setting": "[3]; 100 ng/mL", "value": 81.01}, {"measurement": "Mean relative darkening of the groups (measured by image J), Mean", "setting": "[3]; 1000 ng/mL", "value": 71.61}, {"measurement": "Influence on HF melanogenesis (in words)", "setting": "[3]; quantitative Masson-Fontana histochemistry", "value": "did not influence HF melanogenesis"}, {"measurement": "Mean percentage of Ki67-positive cells", "setting": "[4]; 100 ng/mL", "value": 25.15, "unit": "percentage"}, {"measurement": "Percentage of proliferating cells compared to the control (in words)", "setting": "[4]; 100 ng/mL", "value": "less percentage of cells are proliferating"}, {"measurement": "Mean percentage of Ki67-positive cells", "setting": "[4]; 1000 ng/mL", "value": 28.05, "unit": "percentage"}, {"measurement": "Percentage of proliferating cells compared to the control (in words)", "setting": "[4]; 1000 ng/mL", "value": "less percentage of cells are proliferating"}, {"measurement": "Hair follicles in anagen compared with control (in words)", "setting": "human hair follicles", "value": "more hair follicles in anagen"}]}]}
